Test results as given in PMC8838850, “Synthesis, Antimicrobial, Anti-Virulence and Anticancer Evaluation of New 5(4H)-Oxazolone-Based Sulfonamides” (Molecules, 2022).
Values after ≈ are worked out from the molar mass of the structure shown.

Legend:
[1] = test system: Aspergillus niger ATCC 16404; test: MIC by agar dilution (antifungal); format: cell-based; conditions: for MIC: ATCC16404, read-out: Minimum inhibitory concentration (MIC)
Description: (§1) The MICs of the synthesized compound were determined by agar dilution method according to the Clinical Laboratory and Standards Institute Guidelines (CLSI, 2015). Briefly, the tested strains were incubated overnight in tryptic soy broth (TSB) (Oxoid, United Kingdom) and then diluted in Muller–Hinton (MH) broth (Oxoid, United Kingdom) to turbidity approximating to the equivalent of 0.5 McFarland standard. The suspensions were further diluted with sterile saline (1:10) and standardized inoculums (approximately 10^4 CFU per spot) were spotted on the surfaces of MH agar (Oxoid, United Kingdom) plates containing different concentrations of tested compounds and a control plate. The MICs were the lowest concentrations that inhibit growth on the plates after incubation at 37 °C for 20 h.

[2] = test system: Candida albicans ATCC 10231; test: MIC by agar dilution (antifungal); format: cell-based; conditions: for MIC: Candida albicans, ATCC10231, Candida albicans ATCC 10231, read-out: Minimum inhibitory concentration (MIC)
Description: as §1

[3] = test system: Panc-1; test: SRB cellular proliferation assay; format: cell-based, human; conditions: Homo sapiens, Panc-1 cells, mean ± SD (n = 3), read-out: IC50
Description: (§2) The pancreatic human cancer cell lines BxPC-3 and Panc-1, the human hepatocellular carcinoma (HepG-2), and the normal immortalized pancreatic cell line HPDE, that were used in this study, were obtained from the American Type Culture Collection (Rockville, USA). Cell lines were cultured and treated with the tested compounds or dimethyl sulfoxide (DMSO) as previously described. Cells were cultivated in DMEM medium (Invitrogen, Carlsbad, CA, USA), supplemented with streptomycin, penicillin and fetal bovine serum (FCS) (Invitrogen, Carlsbad, CA, USA). The sulforhodamine B (SRB) assay was employed to assess the anti-proliferative effects of tested compounds on cancer cells. Cell lines were incubated and regularly treated with DMSO or increasing doses of tested compounds for 48 h. The cells were fixed with 10% trichloroacetic acid and stained with SRB fluorescent dye for 30 min. Then, the bounded SRB dye to cellular proteins was dissolved in 10 mM Tris base after washing excess dye with 1% acetic acid. The absorbance was measured at 510 nm in a reader (Biotek, Winooski, VT, USA).

[4] = test system: BxPC-3; test: SRB cellular proliferation assay; format: cell-based, human; conditions: Homo sapiens, BxPC-3 cells, mean ± SD (n = 3), read-out: IC50
Description: as §2

[5] = test system: HepG-2; test: SRB cellular proliferation assay; format: cell-based, human; conditions: Homo sapiens, HepG2, HepG-2 cells, mean ± SD (n = 3), read-out: IC50
Description: as §2

[6] = test system: Salmonella typhimurium ATCC 14028; test: MIC by agar dilution; format: cell-based; conditions: Salmonella enterica, 37 °C, 20 h, read-out: Minimum inhibitory concentration (MIC)
Description: as §1

[7] = test system: Staphylococcus epidermidis ATCC 12228; test: MIC by agar dilution; format: cell-based; conditions: ATCC12228, 37 °C, 20 h, read-out: Minimum inhibitory concentration (MIC)
Description: as §1

[8] = test system: Klebsiella pneumoniae ATCC 27736; test: MIC by agar dilution; format: cell-based; conditions: ATCC27736, 37 °C, 20 h, read-out: Minimum inhibitory concentration (MIC)
Description: as §1

[9] = test system: Escherichia coli ATCC 10536; test: MIC by agar dilution; format: cell-based; conditions: ATCC10536, 37 °C, 20 h, read-out: Minimum inhibitory concentration (MIC)
Description: as §1

[10] = test system: Micrococcus spp. ATCC 10240; test: MIC by agar dilution; format: cell-based; conditions: ATCC10240, 37 °C, 20 h, read-out: Minimum inhibitory concentration (MIC)
Description: as §1

[11] = test system: Staphylococcus aureus ATCC 6538; test: MIC by agar dilution; format: cell-based; conditions: ATCC6538, 37 °C, 20 h, read-out: Minimum inhibitory concentration (MIC)
Description: as §1

[12] = test system: Pseudomonas aeruginosae ATCC 47085; test: MIC by agar dilution; format: cell-based, Pseudomonas aeruginosa; conditions: ATCC47085, 37 °C, 20 h, read-out: Minimum inhibitory concentration (MIC)
Description: as §1

MIC [1] [mg/L] | MIC [2] [mg/L] | IC50 [3] [mg/L] | IC50 [4] [mg/L] | MIC [6] [mg/L] | MIC [7] [mg/L] | MIC [8] [mg/L] | MIC [9] [mg/L] | MIC [10] [mg/L] | MIC [11] [mg/L] | melting point [°C] | MIC [12] [mg/L] | Compound | IC50 [5] [mg/L] | Minimum inhibitory concentration (MIC) [1] [mg/L] | Minimum inhibitory concentration (MIC) ([2]; Candida albicans ATCC 10231) [mg/L]
> 32 | > 32 | 29.3 ± 4.23 (≈ 55.8 µM) | 25.7 ± 4.89 (≈ 49 µM) | 16 (≈ 30.5 µM) | 2 (≈ 3.81 µM) | 8 (≈ 15.2 µM) | 2 (≈ 3.81 µM) | 2 (≈ 3.81 µM) | 2 (≈ 3.81 µM) | 235 to 237 | 16 (≈ 30.5 µM) | Cc1ccc(S(=O)(=O)Nc2ccccc2C2=N/C(=C/c3ccc(OCc4ccccc4)cc3)C(=O)O2)cc1 [Compound 9g, (E)-N-(2-(4-(4-(Benzyloxy)benzylidene)-5-oxo-4,5-dihydrooxazol-2-yl)phenyl)-4-methylbenzenesulfonamide] | 32.5 ± 1.45 (≈ 62 µM) | – | –
> 32 | > 32 | 16.1 ± 1.82 (≈ 39.5 µM) | 21.8 ± 2.98 (≈ 53.4 µM) | > 32 | 2 (≈ 4.9 µM) | > 32 | > 32 | 2 (≈ 4.9 µM) | 2 (≈ 4.9 µM) | 191 to 193 | > 32 | Cc1ccc(S(=O)(=O)Nc2ccccc2C2=N/C(=C/c3ccco3)C(=O)O2)cc1 [Compound 9i, (E)-N-(2-(4-(Furan-2-ylmethylene)-5-oxo-4,5-dihydrooxazol-2-yl)phenyl)-4-methylbenzenesulfonamide] | 27 ± 5.32 (≈ 66.1 µM) | – | –
> 32 | > 32 | 16 ± 3.18 (≈ 37.8 µM) | 21.4 ± 2.15 (≈ 50.5 µM) | > 32 | 8 (≈ 18.8 µM) | > 32 | > 32 | 8 (≈ 18.8 µM) | 16 (≈ 37.7 µM) | 196 to 198 | > 32 | Cc1ccc(S(=O)(=O)Nc2ccccc2C2=N/C(=C/c3cccs3)C(=O)O2)cc1 [Compound 9j, (E)-4-Methyl-N-(2-(5-oxo-4-(thiophen-2-ylmethylene)-4,5-dihydrooxazol-2-yl)phenyl)benzenesulfonamide] | 25.54 ± 0.144 (≈ 60.2 µM) | – | –
– | – | 6.9 ± 0.93 (≈ 12.7 µM) | 7.31 ± 1.12 (≈ 13.4 µM) | – | – | – | – | – | – | – | – | COc1cccc2c1C(=O)c1c(O)c3c(c(O)c1C2=O)C[C@@](O)(C(=O)CO)C[C@@H]3O[C@H]1C[C@H](N)[C@H](O)[C@H](C)O1 [Doxorubicin, reference compound] | 5.11 ± 0.98 (≈ 9.4 µM) | – | –
– | – | – | – | – | – | – | – | – | – | – | – | C[C@@H]1[C@H](O)[C@@H](C)/C=C/C=C/CC/C=C/C=C/C=C/C=C/C(O[C@H]2O[C@H](C)[C@@H](O)[C@H](N)[C@@H]2O)CC2O[C@](O)(CC(O)C(O)CCC(O)CC(O)CC(O)CC(=O)O[C@H]1C)CC(O)C2C(=O)O (stereo partly drawn) [Nystatin, reference compound] | – | 4 (≈ 4.32 µM) | 4 (≈ 4.32 µM)

Compound | MIC [1] [mg/L] | MIC [2] [mg/L] | IC50 [3] [mg/L] | IC50 [4] [mg/L] | MIC [6] [mg/L] | MIC [7] [mg/L] | MIC [8] [mg/L] | MIC [9] [mg/L] | MIC [10] [mg/L] | MIC [11] [mg/L] | melting point [°C] | MIC [12] [mg/L] | IC50 [5] [mg/L] | Minimum inhibitory concentration (MIC) [1] [mg/L] | Minimum inhibitory concentration (MIC) ([2]; Candida albicans ATCC 10231) [mg/L]
Cc1cc(NS(=O)(=O)c2ccc(N)cc2)no1 [Sulphamethoxazole, reference compound] | – | – | – | – | 2 (≈ 7.9 µM) | 2 (≈ 7.9 µM) | 2 (≈ 7.9 µM) | 1 (≈ 3.95 µM) | 1 (≈ 3.95 µM) | 2 (≈ 7.9 µM) | – | 4 (≈ 15.8 µM) | – | – | –
